The record followed here is patent US11247972B2, “Compositions and methods for treating toxoplasmosis, cryptosporidiosis, and other apicomplexan protozoan related diseases” (University of Washington through its Center for …, priority 2010, dated 2022).

The target of one assay is PfCDPK1 (Plasmodium falciparum (isolate 3D7), UniProt P62344). Kind of assay: biochemical. As to conditions: read-out: PfCDPK1 (% inhibition @ 3 uM).
Another assay deals with PfCDPK4 (Plasmodium falciparum (isolate 3D7), UniProt Q8IBS5). Kind of assay: biochemical. As to conditions: read-out: PfCDPK4 (% inhibition @ 3 uM).

Take `CC(C)c1cccc(-c2nn(C(C)C)c3ncnc(N)c23)c1` [Compound 7e, 1-isopropyl-3-(3-isopropylphenyl)-1H-pyrazolo[3,4-d]pyrimidin-4-amine]: the values for the inhibition at 3 µM on PfCDPK1 and on PfCDPK4 were 74% and 52%, respectively.
On to `Cc1ccc(-c2nn(C(C)C)c3ncnc(N)c23)cc1C` [Compound 7h, 3-(3,4-dimethylphenyl)-1-isopropyl-1H-pyrazolo[3,4-d]pyrimidin-4-amine], for which the values for the inhibition at 3 µM at PfCDPK1 and at PfCDPK4 were 83% and 85%, respectively.
`CC(C)n1nc(-c2cccc3ccccc23)c2c(N)ncnc21` [Compound 7o, 1-isopropyl-3-(naphthalen-1-yl)-1H-pyrazolo[3,4-d]pyrimidin-4-amine]: the inhibition (commonly the drop in the measured response relative to a control, in per cent) at 3 µM was 58% at PfCDPK1 and 79% at PfCDPK4.
Taken in the same sequence, the figures for `CC(C)n1nc(-c2ccc3ccccc3c2)c2c(N)ncnc21` [Compound 7p, 1-isopropyl-3-(naphthalen-2-yl)-1H-pyrazolo[3,4-d]pyrimidin-4-amine] were 95% and 98%.
Taken in the same sequence, the figures for `CCOc1ccc2cc(-c3nn(C(C)C)c4ncnc(N)c34)ccc2c1` [Compound 7r, 3-(6-ethoxynaphthalen-2-yl)-1-isopropyl-1H-pyrazolo[3,4-d]pyrimidin-4-amine] were 94% and 99%.
As for `COc1cc2ccccc2cc1-c1nn(C(C)C)c2ncnc(N)c12` [Compound 7s, 1-isopropyl-3-(3-methoxynaphthalen-2-yl)-1H-pyrazolo[3,4-d]pyrimidin-4-amine], the inhibition at 3 µM stood at 53% on PfCDPK1 and 20% at PfCDPK4.
The corresponding values for `CC(C)n1nc(-c2ccc3c(c2)OCO3)c2c(N)ncnc21` [Compound 7u, 3-(benzo[d][1,3]dioxol-5-yl)-1-isopropyl-1H-pyrazolo[3,4-d]pyrimidin-4-amine] are 94% and 77%.
The corresponding values for `CC(C)n1nc(-c2cccc(-c3ccccc3)c2)c2c(N)ncnc21` [Compound 7z, 3-(biphenyl-3-yl)-1-isopropyl-1H-pyrazolo[3,4-d]pyrimidin-4-amine] are 79% and 21%.
Taken in the same sequence, the figures for `CC(C)c1nc(-c2ccc3ccccc3c2)c2c(N)nccn12` [Compound 8, 3-isopropyl-1-(naphthalen-2-yl)imidazo[1,5-a]pyrazin-8-amine] were 92% and 92%.
As to `CC(C)c1nc(-c2cnc3ccccc3c2)c2c(N)nccn12` [Compound 9, 3-isopropyl-1-(quinolin-3-yl)imidazo[1,5-a]pyrazin-8-amine], the inhibition at 3 µM amounted to 76% on PfCDPK1 and 88% on PfCDPK4.
In the case of `CCOc1ccc2cc(-c3nc(C(C)C)n4ccnc(N)c34)ccc2c1` [Compound 10, 1-(6-ethoxynaphthalen-2-yl)-3-isopropylimidazo[1,5-a]pyrazin-8-amine], the inhibition at 3 µM on PfCDPK1 was 93%; on PfCDPK4, 94%.
For `CC(C)Oc1ccc2cc(-c3nn(C(C)C)c4ncnc(N)c34)ccc2c1` [Compound 11, 3-(6-isopropoxynaphthalen-2-yl)-1-isopropyl-1H-pyrazolo[3,4-d]pyrimidin-4-amine], the inhibition at 3 µM on PfCDPK1 was 93%; at PfCDPK4, 87%.
Taken in the same sequence, the figures for `CCCOc1ccc2cc(-c3nn(C(C)C)c4ncnc(N)c34)ccc2c1` [Compound 12, 1-isopropyl-3-(6-propoxynaphthalen-2-yl)-1H-pyrazolo[3,4-d]pyrimidin-4-amine] were 95% and 91%.
Regarding `Nc1ncnc2c1c(Cc1cccc3ccccc13)nn2CC1CCCCC1` [Compound 17, 1-(cyclohexylmethyl)-3-(naphthalen-1-ylmethyl)-1H-pyrazolo[3,4-d]pyrimidin-4-amine], the inhibition at 3 µM on PfCDPK1 amounted to 44%; at PfCDPK4, 5%.
The corresponding values for `CC(C)n1nc(-c2cccc(OCc3ccccc3Cl)c2)c2c(N)ncnc21` [Compound 21, 3-(3-(2-chlorobenzyloxy)phenyl)-1-isopropyl-1H-pyrazolo[3,4-d]pyrimidin-4-amine] are 68% and 9%.
Taken in the same sequence, the figures for `COc1cc(COc2cccc(-c3nn(C(C)C)c4ncnc(N)c34)c2)cc(OC)c1` [Compound 22, 3-(3-(3,5-dimethoxybenzyloxy)phenyl)-1-isopropyl-1H-pyrazolo[3,4-d]pyrimidin-4-amine] were 71% and 9%.
Taken in the same sequence, the figures for `COc1ccc(-c2nn(C(C)C)c3ncnc(N)c23)cc1OC(C)C` [Compound 23, 3-(3-isopropoxy-4-methoxyphenyl)-1-isopropyl-1H-pyrazolo[3,4-d]pyrimidin-4-amine] were 75% and 11%.
`COc1ccc2cc(-c3nn(CC4CCNCC4)c4ncnc(N)c34)ccc2c1` [Compound 28, 3-(6-methoxynaphthalen-2-yl)-1-(piperidin-4-ylmethyl)-1H-pyrazolo[3,4-d]pyrimidin-4-amine]: the inhibition at 3 µM came out at 92% on PfCDPK1 and 99% at PfCDPK4.
Taken in the same sequence, the figures for `Nc1ncnc2c1c(-c1cnc3ccccc3c1)nn2CC1CCNCC1` [Compound 30, 1-(piperidin-4-ylmethyl)-3-(quinolin-3-yl)-1H-pyrazolo[3,4-d]pyrimidin-4-amine] were 82% and 86%.
The corresponding values for `Nc1ncnc2c1c(Cc1cccc3ccccc13)nn2Cc1c[nH]cn1` [Compound 31, 1-((1H-imidazol-4-yl)methyl)-3-(naphthalen-1-ylmethyl)-1H-pyrazolo[3,4-d]pyrimidin-4-amine] are 51% and 40%.
Turning to `Nc1ncnc2c1c(-c1ccc3cc(OCc4ccc(Cl)cc4)ccc3c1)nn2CC1CCNCC1` [Compound 39, 3-(6-(4-chlorobenzyloxy)naphthalen-2-yl)-1-(piperidin-4-ylmethyl)-1H-pyrazolo[3,4-d]pyrimidin-4-amine], the inhibition at 3 µM on PfCDPK1 was 102%; at PfCDPK4, 98%.
Taken in the same sequence, the figures for `CC(C)n1nc(-c2ccc3cc(OCc4ccccc4)ccc3c2)c2c(N)ncnc21` [Compound 40, 3-(6-(benzyloxy)naphthalen-2-yl)-1-isopropyl-1H-pyrazolo[3,4-d]pyrimidin-4-amine] were 101% and 84%.
With `C=CCOc1ccc2cc(-c3nn(C(C)C)c4ncnc(N)c34)ccc2c1` [Compound 41, 3-(6-(allyloxy)naphthalen-2-yl)-1-isopropyl-1H-pyrazolo[3,4-d]pyrimidin-4-amine], the values for the inhibition at 3 µM at PfCDPK1 and on PfCDPK4 were 101% and 98%, respectively.
The corresponding values for `CCCCOc1ccc2cc(-c3nn(C(C)C)c4ncnc(N)c34)ccc2c1` [Compound 42, 3-(6-butoxynaphthalen-2-yl)-1-isopropyl-1H-pyrazolo[3,4-d]pyrimidin-4-amine] are 101% and 94%.
Taken in the same sequence, the figures for `CC(C)COc1ccc2cc(-c3nn(C(C)C)c4ncnc(N)c34)ccc2c1` [Compound 43, 3-(6-isobutoxynaphthalen-2-yl)-1-isopropyl-1H-pyrazolo[3,4-d]pyrimidin-4-amine] were 100% and 78%.
Regarding `CC(C)COc1ccc2cc(-c3nn(CC4CCNCC4)c4ncnc(N)c34)ccc2c1` [Compound 44, 3-(6-isobutoxynaphthalen-2-yl)-1-(piperidin-4-ylmethyl)-1H-pyrazolo[3,4-d]pyrimidin-4-amine], the inhibition at 3 µM on PfCDPK1 was found to be 100%; on PfCDPK4 it was 97%.
The corresponding values for `Nc1ncnc2c1c(-c1ccc(Cl)cc1)nn2CC1CCNCC1` [Compound 45, 3-(4-chlorophenyl)-1-(piperidin-4-ylmethyl)-1H-pyrazolo[3,4-d]pyrimidin-4-amine] are 101% and 82%.
Consider `CC(C)n1nc(-c2ccc3cc(OCc4ccccc4Cl)ccc3c2)c2c(N)ncnc21` [Compound 46, 3-(6-(2-chlorobenzyloxy)naphthalen-2-yl)-1-isopropyl-1H-pyrazolo[3,4-d]pyrimidin-4-amine], for which the inhibition at 3 µM on PfCDPK1 amounted to 95%; at PfCDPK4, 52%.
The corresponding values for `CC(C)n1nc(-c2ccc3cc(OCc4cccc(Cl)c4)ccc3c2)c2c(N)ncnc21` [Compound 47, 3-(6-(3-chlorobenzyloxy)naphthalen-2-yl)-1-isopropyl-1H-pyrazolo[3,4-d]pyrimidin-4-amine] are 91% and 51%.
Taken in the same sequence, the figures for `Cc1ccc(C)c(COc2ccc3cc(-c4nn(C(C)C)c5ncnc(N)c45)ccc3c2)c1` [Compound 48, 3-(6-(2,5-dimethylbenzyloxy)naphthalen-2-yl)-1-isopropyl-1H-pyrazolo[3,4-d]pyrimidin-4-amine] were 84% and 10%.
Regarding `Cc1ccccc1COc1ccc2cc(-c3nn(C(C)C)c4ncnc(N)c34)ccc2c1` [Compound 49, 1-isopropyl-3-(6-(2-methylbenzyloxy)naphthalen-2-yl)-1H-pyrazolo[3,4-d]pyrimidin-4-amine], the results for the inhibition at 3 µM at PfCDPK1 and on PfCDPK4 were 88% and 22%, respectively.
The corresponding values for `Cc1ccc(C(F)(F)F)cc1COc1ccc2cc(-c3nn(C(C)C)c4ncnc(N)c34)ccc2c1` [Compound 50, 1-isopropyl-3-(6-(2-methyl-5-(trifluoromethyl)benzyloxy)naphthalen-2-yl)-1H-pyrazolo[3,4-d]pyrimidin-4-amine] are 83% and 26%.
Taken in the same sequence, the figures for `CC(C)n1nc(-c2ccc3cc(OCc4ccc(CC(F)(F)F)c(Cl)c4)ccc3c2)c2c(N)ncnc21` [Compound 51, 3-(6-(3-chloro-4-(2,2,2-trifluoroethyl)benzyloxy)naphthalen-2-yl)-1-isopropyl-1H-pyrazolo[3,4-d]pyrimidin-4-amine] were 86% and 92%.
